Experimental data as given in the supplement of paper PMC10307832.

Columns and labels:
Test in all cases: relative viability (nuclei count vs DMSO), 5 days (fraction); higher = more cells survive
[1] = compound: Cn1c(Nc2ccc(C(F)(F)F)cc2)nc2cc(Oc3ccnc(-c4ncc(C(F)(F)F)[nH]4)c3)ccc21 [RAF265] + CS(=O)(=O)CCNCc1ccc(-c2ccc3ncnc(Nc4ccc(OCc5cccc(F)c5)c(Cl)c4)c3c2)o1 [Lapatinib] (partner 2 µM)
Summary of the method: (§1)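 Each reported value is a median over duplicate plates. It expresses relative viability: treated-well nuclei count divided by vehicle-well nuclei count. Lung cancer cell lines in 1536-well plates were dosed by pin tool a day after seeding, alone with one drug or with a fixed anchor-drug dose plus five library-drug doses (not always all listed) in √10 steps, and nuclei were counted after 5 days.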

[2] = compound: Cc1ccc(-n2nc(C(C)(C)C)cc2NC(=O)Nc2ccc(OCCN3CCOCC3)c3ccccc23)cc1 [Doramapimod] + Nc1nc2[nH]cc(CCc3ccc(C(=O)N[C@@H](CCC(=O)O)C(=O)O)cc3)c2c(=O)[nH]1 [Pemetrexed] (partner 0.2 µM)
Summary of the method: as §1

[3] = compound: Cn1c(Nc2ccc(C(F)(F)F)cc2)nc2cc(Oc3ccnc(-c4ncc(C(F)(F)F)[nH]4)c3)ccc21 [RAF265] + CC(C)C[C@H](NC(=O)[C@H](Cc1ccccc1)NC(=O)c1cnccn1)B(O)O [Bortezomib] (partner 0.002 µM)
Summary of the method: as §1

[4] = compound: Cn1c(Nc2ccc(C(F)(F)F)cc2)nc2cc(Oc3ccnc(-c4ncc(C(F)(F)F)[nH]4)c3)ccc21 [RAF265] + Cc1cc(Nc2cc(N3CCN(C)CC3)nc(Sc3ccc(NC(=O)C4CC4)cc3)n2)n[nH]1 [Tozasertib] (partner 0.1 µM)
Summary of the method: as §1

Cell Line | relative viability ([1]; first compound 0.01 µM) | relative viability ([1]; first compound 0.03162 µM) | relative viability ([1]; first compound 0.1 µM) | relative viability ([1]; first compound 0.3162 µM) | relative viability ([1]; first compound 1 µM) | relative viability ([2]; first compound 0.02 µM) | relative viability ([2]; first compound 0.06325 µM) | relative viability ([2]; first compound 0.2 µM) | relative viability ([2]; first compound 0.6325 µM) | relative viability ([2]; first compound 2 µM) | relative viability ([3]; first compound 0.01 µM) | relative viability ([3]; first compound 0.03162 µM) | relative viability ([3]; first compound 0.1 µM) | relative viability ([3]; first compound 0.3162 µM) | relative viability ([3]; first compound 1 µM) | relative viability ([4]; first compound 0.01 µM) | relative viability ([4]; first compound 0.03162 µM) | relative viability ([4]; first compound 0.1 µM) | relative viability ([4]; first compound 0.3162 µM) | relative viability ([4]; first compound 1 µM)
NCI-H647 | 1.19 | 0.937 | 0.828 | 0.711 | 0.809 | 0.195 | 0.138 | 0.15 | 0.168 | 0.152 | 0.949 | 0.806 | 0.686 | 0.58 | 0.426 | 0.197 | 0.207 | 0.269 | 0.443 | 0.158
NCI-H650 | 0.959 | 0.849 | 0.922 | 0.602 | 0.328 | 0.741 | 0.938 | 0.976 | 1.06 | 0.9 | 0.836 | 0.781 | 0.793 | 0.539 | 0.32 | 0.716 | 0.704 | 0.738 | 0.655 | 0.375
EKVX | 0.189 | 0.199 | 0.228 | 0.153 | 0.187 | 0.426 | 0.34 | 0.325 | 0.415 | 0.357 | 0.99 | 0.995 | 1.04 | 0.513 | 0.763 | 0.376 | 0.344 | 0.469 | 0.377 | 0.306
NCI-H460 | 1.01 | 0.934 | 0.853 |  | 0.646 | 0.0629 | 0.0546 | 0.0497 | 0.0506 | 0.0521 | 1.15 | 1.22 | 1.09 |  | 0.742 | 0.446 | 0.468 | 0.628 | 0.445 | 0.293
LCLC-97TM1 | 1.12 | 1.05 | 0.443 | 0.856 | 0.219 | 0.181 | 0.171 | 0.164 | 0.184 | 0.156 | 0.253 | 0.671 | 0.492 | 0.181 | 0.238 | 0.223 | 0.141 | 0.156 | 0.109 | 0.0904
COR-L23 | 1.02 | 0.982 | 1.02 | 0.748 | 0.62 | 0.222 | 0.203 | 0.212 | 0.19 | 0.2 | 1.05 | 0.87 | 0.964 | 0.706 | 0.511 | 0.212 | 0.176 | 0.208 | 0.201 | 0.161
NCI-H1355 | 1.07 | 0.969 | 0.842 | 0.85 | 0.596 | 1.06 | 1.04 | 0.999 | 1.05 | 0.894 | 1.26 | 1.19 | 1.05 | 1.09 | 0.804 | 0.575 | 0.515 | 0.587 | 0.47 | 0.19
NCI-H1666 | 1.06 | 0.629 | 0.856 | 0.791 | 0.53 | 0.841 | 0.916 | 0.819 | 0.948 | 0.913 | 1.09 | 0.809 | 0.935 | 0.977 | 0.595 | 0.635 | 0.664 | 0.689 | 0.618 | 0.488
EPLC-272H | 0.976 | 0.707 | 0.655 | 0.855 | 0.343 | 0.351 | 0.301 | 0.303 | 0.374 | 0.327 | 0.973 | 0.956 | 0.818 | 0.808 | 0.392 | 0.218 | 0.328 | 0.275 | 0.257 | 0.199
NCI-H1651 | 0.931 | 0.797 | 0.864 | 0.669 | 0.644 | 0.576 | 0.731 | 0.594 | 0.658 | 0.595 | 0.981 | 0.978 | 0.974 | 0.897 | 0.932 | 0.744 | 0.718 | 0.731 | 0.703 | 0.426
HCC-44 | 0.994 | 0.895 | 0.993 | 1.04 | 0.968 | 0.673 | 0.649 | 0.712 | 0.605 | 0.614 | 0.862 | 0.818 | 0.9 | 0.957 | 0.873 | 0.892 | 0.779 | 1.25 | 1.07 | 0.821
SW 1573 | 1.15 | 1.18 | 1.18 | 1.04 | 0.824 | 0.772 | 0.794 | 0.773 | 0.938 | 0.721 | 1.38 | 0.91 | 1.17 | 0.873 | 0.514 | 0.168 | 0.24 | 0.171 | 0.183 | 0.139
PC-3 [JPC-3] | 0.423 | 0.471 | 0.475 | 0.38 | 0.36 | 1.27 | 1.37 | 1.24 | 0.933 | 1.03 | 0.751 | 0.815 | 0.834 | 0.393 | 0.731 | 0.889 | 0.868 | 0.985 |  | 0.518
LOU-NH91 | 0.763 | 0.719 | 0.664 | 0.808 | 0.572 | 0.388 | 0.396 | 0.355 | 0.379 | 0.395 | 0.542 | 0.465 | 0.521 | 0.596 | 0.521 | 0.705 | 0.618 | 0.78 | 0.457 | 0.467
PC-14 | 0.339 | 0.331 | 0.403 |  | 0.383 | 0.129 | 0.128 | 0.134 | 0.148 | 0.109 | 0.798 | 0.726 | 0.886 | 0.953 | 0.693 | 0.629 | 0.555 | 0.655 |  | 0.542
NCI-H2087 | 0.964 | 0.874 | 0.837 | 0.833 | 0.684 | 0.589 | 0.646 | 0.597 | 0.573 | 0.61 | 0.772 | 0.718 | 0.804 | 0.621 | 0.714 | 0.268 | 0.266 | 0.284 | 0.205 | 0.152
